{"source": "patent US6462038B1", "about": "“Androgen receptor modulator compounds and methods” (Ligand Pharmaceuticals, Inc., priority 1999, dated 2002)", "test_system": "immature castrated male rat", "assay": "immature castrated male rat model: ventral prostate, seminal vesicle and levator ani growth", "type": "in vivo", "conditions": "oral; for LA (wet wt) / LA eff (% intact) / SV (wet wt) / SV eff (% intact) / VP (wet wt) / VP eff (% of intact): Table 4, castrated immature rats, once daily, 3 days", "excerpt": "The activity of selected compounds of the present invention as AR agonists was investigated in an immature castrated male rat model, a recognized test of the androgen of a given compound, as described in L. G. Hershberger et al., “Myotrophic Activity of 19-Nortestosterone and Other Steroids Determined by Modified Levator Ani Muscle Method” 83 Proc. Soc. Exptl.\nThe basis of this assay is the fact that the male sexual accessory organs, such as the prostate and seminal vesicles, play an important role in reproductive function. […] F. Labrie et al. 16 Clin. Invest. […] However, this is not a major pathway, since in both animals and humans, castration leads to almost complete involution of the prostate and seminal vesicles without concomitant adrenalectomy. […] Since the male sex organs are the tissues most responsive to modulation of androgen activity, this model is used to determine the androgen-dependent growth of the sex accessory organs in immature castrated rats. […] Male immature rats ([…], 21-day-old, Sprague-Dawley, Harlan) were castrated under metofane anesthesia. Immediately after surgery, animals groups were dosed for 3 days as follows:\nAt the end of the 3-day treatment, the animals were sacrificed, and the ventral prostates (VP), seminal vesicles (SV), and levator ani (LA) were collected and weighed. The sexual organ weights were first standardized as mg per 100 g of body weight, and the increase in organ weight induced by the compounds of the present invention was compared to the castrate control animals. […] Super-anova (one factor) was used for statistical analysis.\nThe gain and loss of sexual organ weights reflect the changes of cell number (DNA content) and cell mass (protein content), depending upon the serum androgen concentration. […] Therefore, measurement of organ wet weights is sufficient to indicate the bioactivity of androgens and androgen antagonists."}
{"smiles": "O=c1cc(C(F)(F)F)c2cc3c(cc2[nH]1)OCCN3CC(F)(F)F", "note": "[Compound 105, 1,2,3,6-Tetrahydro-1-(2,2,2-trifluoroethyl)-9-(trifluoromethyl)-7H-[1,4]oxazino[3,2-g]quinolin-7-one]", "values": [{"measurement": "LA (wet wt)", "setting": "3 mg/kg", "result": "33.0 ± 2.4", "unit": "mg/100 g body weight"}, {"measurement": "LA eff (% intact)", "setting": "3 mg/kg", "result": "306 ± 140", "unit": "%"}, {"measurement": "SV (wet wt)", "setting": "3 mg/kg", "result": "8.5 ± 0.7", "unit": "mg/100 g body weight"}, {"measurement": "SV eff (% intact)", "setting": "3 mg/kg", "result": "15 ± 13", "unit": "%"}, {"measurement": "VP (wet wt)", "setting": "3 mg/kg", "result": "26.9 ± 1.1", "unit": "mg/100 g body weight"}, {"measurement": "VP eff (% of intact)", "setting": "3 mg/kg", "result": "12 ± 5", "unit": "%"}, {"measurement": "LA (wet wt)", "setting": "10 mg/kg", "result": "36.3 ± 1.3", "unit": "mg/100 g body weight"}, {"measurement": "LA eff (% intact)", "setting": "10 mg/kg", "result": "498 ± 73", "unit": "%"}, {"measurement": "SV (wet wt)", "setting": "10 mg/kg", "result": "9.9 ± 0.4", "unit": "mg/100 g body weight"}, {"measurement": "SV eff (% intact)", "setting": "10 mg/kg", "result": "42 ± 8.2", "unit": "%"}, {"measurement": "VP (wet wt)", "setting": "10 mg/kg", "result": "35.9 ± 2.7", "unit": "mg/100 g body weight"}, {"measurement": "VP eff (% of intact)", "setting": "10 mg/kg", "result": "52 ± 12", "unit": "%"}, {"measurement": "LA (wet wt)", "setting": "30 mg/kg", "result": "35.8 ± 1.2", "unit": "mg/100 g body weight"}, {"measurement": "LA eff (% intact)", "setting": "30 mg/kg", "result": "469 ± 71", "unit": "%"}, {"measurement": "SV (wet wt)", "setting": "30 mg/kg", "result": "11.7 ± 1.4", "unit": "mg/100 g body weight"}, {"measurement": "SV eff (% intact)", "setting": "30 mg/kg", "result": "78 ± 26", "unit": "%"}, {"measurement": "VP (wet wt)", "setting": "30 mg/kg", "result": "30.1 ± 2.1", "unit": "mg/100 g body weight"}, {"measurement": "VP eff (% of intact)", "setting": "30 mg/kg", "result": "26 ± 9", "unit": "%"}, {"measurement": "LA (wet wt)", "setting": "100 mg/kg", "result": "39.7 ± 0.6", "unit": "mg/100 g body weight"}, {"measurement": "LA eff (% intact)", "setting": "100 mg/kg", "result": "696 ± 36", "unit": "%"}, {"measurement": "SV (wet wt)", "setting": "100 mg/kg", "result": "14.4 ± 1.0", "unit": "mg/100 g body weight"}, {"measurement": "SV eff (% intact)", "setting": "100 mg/kg", "result": "131 ± 19", "unit": "%"}, {"measurement": "VP (wet wt)", "setting": "100 mg/kg", "result": "42.1 ± 1.6", "unit": "mg/100 g body weight"}, {"measurement": "VP eff (% of intact)", "setting": "100 mg/kg", "result": "80 ± 7", "unit": "%"}, {"measurement": "AR agonist activity: weights of the VP, SV and LA", "setting": "immature castrated rat, statement in words", "result": "exhibited AR agonist activity"}]}
